Test results: US7342090B1, “Fab-epitope complex from the HIV-1 cross-neutralizing monoclonal antibody 2F5” (University of Toronto, priority 1999, dated 2008)
Square brackets hold non-standard residues; d marks the D form. Ends that are not written are not given here. Dap = NC[C@H](N)C(=O)O

Test system: monoclonal antibody 2F5
Assay: Immuno-complex formation of constrained peptides with monoclonal antibody 2F5
Type: binding, human
Conditions: subsequently co-crystallized with the Fab′ fragment

Chain of monoclonal antibody 2F5 (as listed by the source, other chains not shown): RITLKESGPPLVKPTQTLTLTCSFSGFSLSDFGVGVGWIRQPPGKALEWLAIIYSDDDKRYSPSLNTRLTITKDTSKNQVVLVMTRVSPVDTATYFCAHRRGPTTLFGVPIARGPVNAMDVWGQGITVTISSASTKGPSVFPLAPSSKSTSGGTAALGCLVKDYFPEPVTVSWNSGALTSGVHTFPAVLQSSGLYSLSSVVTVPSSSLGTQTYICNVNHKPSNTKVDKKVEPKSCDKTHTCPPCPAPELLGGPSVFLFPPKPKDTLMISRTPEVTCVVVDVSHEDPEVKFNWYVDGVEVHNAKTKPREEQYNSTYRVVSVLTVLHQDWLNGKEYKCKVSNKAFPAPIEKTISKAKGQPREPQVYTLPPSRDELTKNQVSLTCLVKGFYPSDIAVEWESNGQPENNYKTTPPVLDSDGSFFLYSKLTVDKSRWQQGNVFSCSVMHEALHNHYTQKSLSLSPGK

Row | Substance | formation of an immuno-complex with monoclonal antibody 2F5
1 | ECDKWCS [CLP-634] | capable of forming an immuno-complex
2 | E[Dap]DKWES [CLP-1309] | capable of forming an immuno-complex
